Here are results for twelve compounds from US9499495B2, “Quinazolines and azaquinazolines as dual inhibitors of RAS/RAF/MEK/ERK and PI3K/AKT/PTEN/mTOR pathways” (Asana Biosciences, LLC, priority 2013, dated 2016).

For experiment [1], the target named is T1, B-RAFV600E (Homo sapiens, UniProt P15056, V600E).
T1 construct: purchased Millipore, USA 14-557
Put plainly: B-RAFV600E radiometric assay. It counts as biochemical. The conditions noted are these: read-out: Kinase assay B-Raf. Here is the method:
Compound inhibition for B-RAFV600E was determined through radiometric assay using a BRAF enzyme (Catalog No. 14-557, Millipore, USA) and MEK-K97M protein as a substrate (Catalog No. 0785-0000-1, ProqQinase GmbH, Germany). The B-RAF kinase catalyzes the phosphorylation of MEK protein in the presence of gamma ATP (PLC-101, Jonaki, CCMB, Hyderabad), cold ATP and Mg^2+.
The phosphorylated protein product is detected by the scintillation counter Topcount® machine (Perkin Elmer). This assay has been adapted from the method previously reported by Yeh et al. (2007, Clinical Cancer Research; 13, 1576-1583). The assay measures the B-RAF mediated transfer of 32P from the gamma position of radiolabeled ATP onto MEK1-KD. The labeled phosphorylated protein was measured in MicroBeta® Trilux Counter (Perkin Elmer). The assay was validated with reference compounds RAF1 Kinase Inhibitor I and ZM 336372 inhibitor which are reported to be inhibitors of B-RAF enzyme (Lackey, 2000, Medicinal Chemistry Letters; 10(3):223-226; Kupcho, “Fluorescent High throughput kinase cascade assays for inhibitor characterization, RAF-MEK-ERK pathway, www.invitrogen.com, and Hall-Jackson, 1999, Chemical Biology; 6(8):559-568). B-RAF enzyme mixture (13 μL) was added to compound wells containing 2 μL of the NCE in 1% DMSO and incubated for 45 min at rt on a shaking incubator at 300 rpm. MEK-K97M (0.5 μg) and cold ATP to a final concentration of 5 μM, and hot ATP 0.1 μCi in a volume of 10 μL was added to each well and incubated for 2 h at rt on a shaking incubator at 300 rpm. The reaction was stopped by addition of […] (13 μL) containing ATP (1 mM: 495 μL 1N HCl and 5 μL 100 mM ATP). Aliquot (30 μL) was then transferred to the center of a 2 cm×2 cm P81 paper. P81 paper was washed 8×5 min each with ortho-phosphoric acid (0.5%). P81 papers are washed twice with acetone for […] Assay squares were allowed to dry for […] at 37° C. P81 paper are transferred to Optiplate™ (Perkin Elmer) and counted in a Topcount® counter (Perkin Elmer). Data was plotted against the compound concentration to generate dose-response curves and IC50 values were determined using a sigmoidal dose response curve fit GraphPad Prism® v5 software.

Experiment [2] relates to pERK in A375 cells. Put plainly: In Cell Western (ICW) assay, pERK in A375 cells. It counts as cell-based. To be noted: Homo sapiens, A-375, 3 h treatment. Here is the method: Cell lines A375, A2058 and RKO obtained from the ATCC as provided above, were grown, and after attaining ˜80% confluency were trypsinized, centrifuged and resuspended in fresh media. The cells were seeded at the specified density (20,000 to 50,000) in a 96-well format black-well clear bottom plate (Corning) and incubated overnight at 37° C. in a 5% CO2 incubator. The next day, compound dilutions of test compounds were prepared in 100% DMSO followed by dilutions in respective media. Treatment of test compounds was performed for 3 h at 37° C. in 5% CO2 incubator. Following 3 h drug treatment, the conditional media was discarded and the cells were washed once with cPBS (PBS containing 0.1% magnesium chloride hexahydrate and 0.1% anhydrous calcium chloride) and fixed with 4% paraformaldehyde in cPBS for 1 h at rt. After fixing, the cells were given three washes using cPBST (cPBS containing 0.1% Triton™ X-100 reagent) and then blocked using blocking solution (5% skimmed milk powder or 5% BSA prepared in cPBST) for 2 h at rt with shaking at 300 rpm. The cells were again washed thrice with cPBST and incubated with primary antibody phospho-p44/42 MAPK(Erk1/2)(Thr202/204) antibody (Cell Signaling, Catalog # 9101L), phospho S6 ribosomal protein (Cell Signaling, Catalog #4858L), phospho AKT (Thr 308) (Cell Signaling, Catalog #9275) or phospho AKT (Ser 473) (Cell Signaling, Catalog #4060L) in specified dilutions (1:500-1:2500), prepared in respective blocking solutions, in a racker overnight at 4° C. The next day, the cells were washed with 1× Delfia® wash buffer (4×1 wash) and incubated with secondary antibody (Delfia®-Eu-N1 labeled anti-rabbit antibody; PerkinElmer, Catalog #AD0105; dilutions: 1:2000 to 1:6000 in Delfia® assay buffer (PerkinElmer, Catalog #1244-111)) for 2 h at rt in the dark at 300 rpm. The cells were then given four washes with 1× Delfia® wash buffer and incubated with Wallac Delfia® Enhancement solution (100 μL; PerkinElmer, Catalog #1244-105) for 20 min at rt in the dark at 300 rpm. The fluorescence emission was then read at 615 nm with an excitation wavelength of 340 nm using a Victor V5 Fluorometer (Perkin Elmer, US). The cells were then washed once with 1×cPBS and incubated with 100 μL of 0.5 mg/mL of Hoechst 33258 dye prepared in cPBS and read at 460 nm with 355 nm excitation, thereby evaluating the correction factor.
The % inhibition for the test compounds of formula (I) (new chemical entities (NCEs)) was calculated keeping DMSO control as 0% and the IC50 values were determined using sigmoidal dose response curve fit in GraphPad Prism® v5 software.

The target in experiment [3] is T2, mTOR kinase (Homo sapiens, UniProt P42345).
T2 construct: purchased Millipore, US
Description: mTOR kinase TR-FRET assay. It counts as biochemical. Here is the method:
Compound inhibition for mTOR kinase was determined by homogeneous TR-FRET assay using ULight-p70 S6K (Thr 389) peptide as substrate. mTOR enzyme (Millipore, US; […]) was used in the assay. The reaction buffer was HEPES (50 mM, pH 7.5), EGTA (1 mM), and MnCl2 (3 mM). Test compound was pre-incubated with mTOR for 30 min followed by 50 nM ULight-p70 S6K (Thr 389) peptide along with ATP (20 μM).
After incubating the reaction mixture for 30 min, Eu-labeled anti-phospho-substrate antibody (1 nM, Perkin Elmer, USA) was added. Fluorescence emission at […] was measured upon excitation at 340 nm. The compound dilution was carried out in 100% DMSO followed by a buffer dilution. The kinase reaction was incubated for 1 h at rt followed by the addition of substrate-ATP mix and incubated at rt for 1 h. The reaction was terminated by the addition of EDTA followed by the addition of detection mix. IC50 values were determined using a sigmoidal dose response curve fit, GraphPad Prism® v5 software.
On the technique in general: TR-FRET usually uses a lanthanide donor and a delayed reading to cut background.

T1 sequence (P15056 416-766 V600E limits assumed): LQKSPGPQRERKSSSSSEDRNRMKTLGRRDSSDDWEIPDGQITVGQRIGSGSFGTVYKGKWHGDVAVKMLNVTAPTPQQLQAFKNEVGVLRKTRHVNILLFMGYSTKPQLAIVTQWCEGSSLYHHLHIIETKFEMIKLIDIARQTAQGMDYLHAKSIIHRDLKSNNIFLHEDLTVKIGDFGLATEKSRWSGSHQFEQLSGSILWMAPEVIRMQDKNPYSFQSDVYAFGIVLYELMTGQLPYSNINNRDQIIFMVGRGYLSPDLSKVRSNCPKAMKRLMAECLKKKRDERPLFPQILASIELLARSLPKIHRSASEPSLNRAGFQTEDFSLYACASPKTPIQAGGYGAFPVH
T2 sequence (P42345 1362-2549 limits assumed): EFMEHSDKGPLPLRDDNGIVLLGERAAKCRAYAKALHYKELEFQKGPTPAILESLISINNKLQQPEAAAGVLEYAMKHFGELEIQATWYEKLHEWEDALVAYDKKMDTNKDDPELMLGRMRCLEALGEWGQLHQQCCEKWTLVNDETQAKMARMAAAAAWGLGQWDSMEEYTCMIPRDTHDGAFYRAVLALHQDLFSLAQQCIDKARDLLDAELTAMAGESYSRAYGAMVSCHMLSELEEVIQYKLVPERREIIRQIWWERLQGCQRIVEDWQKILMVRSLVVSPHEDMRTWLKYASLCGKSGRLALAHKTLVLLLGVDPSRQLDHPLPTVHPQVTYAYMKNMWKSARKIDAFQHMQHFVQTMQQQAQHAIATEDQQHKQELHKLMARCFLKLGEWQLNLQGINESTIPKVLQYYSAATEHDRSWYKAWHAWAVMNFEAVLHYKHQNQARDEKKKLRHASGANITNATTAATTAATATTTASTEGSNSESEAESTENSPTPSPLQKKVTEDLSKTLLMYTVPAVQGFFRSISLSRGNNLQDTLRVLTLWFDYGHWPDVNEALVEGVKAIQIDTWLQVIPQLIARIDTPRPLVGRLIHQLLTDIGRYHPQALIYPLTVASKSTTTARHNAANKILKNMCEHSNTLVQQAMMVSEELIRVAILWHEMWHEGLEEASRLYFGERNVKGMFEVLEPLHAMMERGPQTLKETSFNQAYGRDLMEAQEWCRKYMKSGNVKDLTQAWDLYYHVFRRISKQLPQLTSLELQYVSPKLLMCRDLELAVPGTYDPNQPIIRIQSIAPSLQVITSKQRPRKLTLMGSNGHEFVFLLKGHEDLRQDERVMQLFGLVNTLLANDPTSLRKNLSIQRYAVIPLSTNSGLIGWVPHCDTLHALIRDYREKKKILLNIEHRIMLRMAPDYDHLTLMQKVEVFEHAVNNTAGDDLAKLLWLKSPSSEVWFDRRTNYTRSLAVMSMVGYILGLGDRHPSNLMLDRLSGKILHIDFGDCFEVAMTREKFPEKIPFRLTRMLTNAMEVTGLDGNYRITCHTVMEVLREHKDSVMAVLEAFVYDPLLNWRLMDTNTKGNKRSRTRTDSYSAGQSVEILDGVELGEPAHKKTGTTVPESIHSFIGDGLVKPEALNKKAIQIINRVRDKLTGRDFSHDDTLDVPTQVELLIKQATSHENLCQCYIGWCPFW

Take `Nc1ccc(-c2nc(N3CCOCC3)c3cc(-c4cccc(NS(=O)(=O)CCCF)c4F)cc(OCC4CC4)c3n2)cn1` [Example 57, N-(3-(2-(6-aminopyridin-3-yl)-8-(cyclopropylmethoxy)-4-morpholinoquinazolin-6-yl)-2-fluorophenyl)-3-fluoropropane-1-sulfonamide]: the values for the IC50 in experiment [1], in experiment [2] and in experiment [3] were 1 to 100 nM, 1 to 100 nM and 100 to 1000 nM, respectively.
As for `COc1cc(-c2cccc(NS(=O)(=O)c3c(F)cccc3F)c2F)cc2c(N3CCOCC3)nc(-c3ccc(NC(=O)NCCO)cc3)nc12` [Example 12, 2,6-difluoro-N-(2-fluoro-3-(2-(4-(3-(2-hydroxyethyl)ureido)phenyl)-8-methoxy-4-morpholinoquinazolin-6-yl)phenyl)benzenesulfonamide], the IC50 in experiment [1] was 100 to 1000 nM; in experiment [2], 1000 to 10000 nM; in experiment [3], 1 to 100 nM.
The like results for `CCNc1ccc(-c2nc(N3CCOCC3)c3nc(-c4cccc(NS(=O)(=O)CCCF)c4F)ccc3n2)cn1` [Example 123, N-(3-(2-(6-(ethylamino)pyridin-3-yl)-4-morpholinopyrido[3,2-d]pyrimidin-6-yl)-2-fluorophenyl)-3-fluoropropane-1-sulfonamide] were, in that order, 1 to 100 nM, 1 to 100 nM and 1 to 100 nM.
The like results for `COc1cc(-c2cccc(NS(=O)(=O)c3c(F)cccc3F)c2F)cc2c(N3CCOCC3)nc(-c3cnc4[nH]ccc4c3)nc12` [Example 16, 2,6-difluoro-N-(2-fluoro-3-(8-methoxy-4-morpholino-2-(1H-pyrrolo[2,3-b]pyridin-5-yl)quinazolin-6-yl)phenyl)benzenesulfonamide] were, in that order, 100 to 1000 nM, 100 to 1000 nM and 100 to 1000 nM.
As to `CCCS(=O)(=O)Nc1cccc(-c2cc(OC)c3nc(-c4ccc(NC(=O)Nc5ccncc5)cc4)nc(N4CCOCC4)c3c2)c1F` [Example 34, N-(2-fluoro-3-(8-methoxy-4-morpholino-2-(4-(3-(pyridin-4-yl)ureido)phenyl)quinazolin-6-yl)phenyl) propane-1-sulfonamide], the IC50 lay in the range of 100 to 1000 nM in experiment [1] and 1 to 100 nM in experiment [3].
In the case of `COc1cc(-c2cccc(NS(=O)(=O)CCCF)c2F)cc2c(N3CCOCC3)nc(-c3ccc(NC(C)=O)cc3)nc12` [Example 125, N-(4-(6-(2-fluoro-3-(3-fluoropropylsulfonamido)phenyl)-8-methoxy-4-morpholinoquinazolin-2-yl)phenyl)acetamide], the IC50 is 100 to 1000 nM in experiment [1], 1 to 100 nM in experiment [2] and 1 to 100 nM in experiment [3].
With `COCCNc1ccc(-c2nc(N3CCOCC3)c3nc(-c4cccc(NS(=O)(=O)CCCF)c4F)ccc3n2)cn1` [Example 133, 3-fluoro-N-(2-fluoro-3-(2-(6-((2-methoxyethyl)amino)pyridin-3-yl)-4-morpholinopyrido[3,2-d]pyrimidin-6-yl)phenyl)propane-1-sulfonamide], the results for the IC50 in experiment [1] and in experiment [3] were 1 to 100 nM and 100 to 1000 nM, respectively.
For `COc1cc(-c2cccc(NS(=O)(=O)CCCF)c2F)cc2c(N3CCOC[C@H]3C)nc(-c3cnc(N)cn3)nc12` [Example 143, (R)-N-(3-(2-(5-aminopyrazin-2-yl)-8-methoxy-4-(3-methylmorpholino)quinazolin-6-yl)-2-fluorophenyl)-3-fluoropropane-1-sulfonamide], in that order: 1 to 100 nM and 100 to 1000 nM.
As to `CNC(=O)Nc1ccc(-c2nc(N3CCOCC3)c3cc(-c4cccc(NS(=O)(=O)CCCF)c4F)cc(OC)c3n2)cc1` [Example 32, 3-fluoro-N-(2-fiuoro-3-(8-methoxy-2-(4-(3-methylureido)phenyl)-4-morpholinoquinazolin-6-yl)phenyl)propane-1-sulfonamide], the IC50 is 100 to 1000 nM in experiment [1], 100 to 1000 nM in experiment [2] and 1 to 100 nM in experiment [3].
For the compound `Nc1ccc(-c2nc(N3CCOCC3)c3cc(-c4cccc(NS(=O)(=O)CCCF)c4F)cc(OCCO)c3n2)cn1` [Example 58, N-(3-(2-(6-aminopyridin-3-yl)-8-(2-hydroxyethoxy)-4-morpholinoquinazolin-6-yl)-2-fluorophenyl)-3-fluoropropane-1-sulfonamide], the IC50 in experiment [1] lay within 1 to 100 nM; in experiment [2], 100 to 1000 nM; in experiment [3], 1 to 100 nM.
For the compound `COc1cc(-c2cccc(NS(=O)(=O)CCCF)c2F)cc2c(N3CCOC[C@H]3C)nc(-c3cnc(N)cc3C#N)nc12` [Example 144, (R)-N-(3-(2-(6-amino-4-cyanopyridin-3-yl)-8-methoxy-4-(3-methylmorpholino)quinazolin-6-yl)-2-fluorophenyl)-3-fluoropropane-1-sulfonamide], the IC50 in experiment [1] lay within 1 to 100 nM; in experiment [3], 100 to 1000 nM.
For `C[C@@H]1COCCN1c1nc(-c2ccc(N)nc2)nc2c(N3CCCC3)cc(-c3cccc(NS(=O)(=O)CCCF)c3F)cc12` [Example 74, (R)-N-(3-(2-(6-aminopyridin-3-yl)-4-(3-methylmorpholino)-8-(pyrrolidin-1-yl)quinazolin-6-yl)-2-fluorophenyl)-3-fluoropropane-1-sulfonamide], the IC50 lay in the range of 1 to 100 nM in experiment [1] and 100 to 1000 nM in experiment [3].
